# In US20160095837A1, “MODULATION OF MITOCHONDRIAL CALCIUM UNIPORTER ACTIVITY FOR TREATING AND PREVENTING ARRHYTHMIAS” (priority 2014, published 2016):
# How the values were obtained:
# [1] = tested on: Ca2+ uptake into mitochondria; settings: in vitro; read-out: IC50, block of Ca2+ uptake into mitochondria in vitro; cited from earlier work
# [2] = target: T1, mitochondrial calcium uniporter (MCU) (Homo sapiens, UniProt Q8NE86); assay: Calcium green mitochondrial Ca2+ uptake assay in permeabilized HEK cells; format: cell-based; settings: Ru360 10 μM or DN-MCU adenovirus (FIG. 6)
# T1 construct: We measured mitochondrial Ca^2+ uptake using permeabilized HEK cells; endogenous in cells; host or cells: HEK293 cells, saponin-permeabilized
# T1 sequence (Q8NE86 51-351): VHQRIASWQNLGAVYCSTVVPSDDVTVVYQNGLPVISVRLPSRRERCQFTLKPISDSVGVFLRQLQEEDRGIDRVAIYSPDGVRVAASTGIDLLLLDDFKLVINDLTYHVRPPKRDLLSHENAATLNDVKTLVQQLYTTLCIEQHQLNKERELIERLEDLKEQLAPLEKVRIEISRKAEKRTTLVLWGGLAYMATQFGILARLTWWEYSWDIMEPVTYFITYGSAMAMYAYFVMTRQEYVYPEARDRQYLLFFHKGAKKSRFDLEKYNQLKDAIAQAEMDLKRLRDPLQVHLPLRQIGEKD
# T1 sequence (Q9H4I9 48-107 partner limits assumed): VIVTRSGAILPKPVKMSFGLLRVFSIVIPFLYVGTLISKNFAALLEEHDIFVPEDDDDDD
# Protocol: (§1) SAN cells were placed in Tyrode's solution at 36±0.5° C. and were identified by their characteristic morphology (spindle or spider shape) and spontaneous activity. SAN cells were identified electrophysiologically by spontaneous action potentials with a slow depolarizing phase 4 and the hyperpolarization-activated current (If).^27 Spontaneous action potentials, If and ICa were recorded using the perforated (amphotericin B or β-escin in studies requiring dialysis of Ru360 and/or ATP) patch-clamp technique^28 on single SAN cells at 36±0.5° C. in Tyrode's solution. Intracellular Ca^2+ transients were recorded from single SAN cells using Fura-2 AM excited at 340 nm and 380 nm and emitted and 510 nm. Endogenous NADH from single SAN cells was measured by excitation at 350 nm and recording emitted light at 460 nm.^29 Mitochondrial Ca^2+ was measured at 535 nm from mt-pericam expressing SAN cells exited at 415 nm^20. Mitochondrial Ca^2+ entry was measured in cell membrane permeabilized cardiomyocytes isolated from DN-MCU transgenic, wild type mice and from HEK293 cells using Calcium green-5N^30.
# We measured mitochondrial Ca^2+ uptake using permeabilized HEK cells as previously described^30,40. […] Fluorescence was measured using a Tecan plate reader. […] Fluorescence intensity was measured from 50,000 […]/well. […]
# [3] = tested on: sinoatrial nodal (SAN) pacemaker cells; assay: Spontaneous action potential rate of single SAN cells (perforated patch clamp); format: cell-based, mouse
# Protocol: as §1
# Isolation of single SAN cells from mice was performed according to previously published methods^22, 27, 31 with minor modifications. Mice were administered an intraperitoneal injection of avertin (20 μl/g) and monitored until unresponsive. The heart was excised and placed into Tyrode's solution (35° C.), consisting of (mM) 140 NaCl, 5.0 HEPES, 5.5 Glucose, 5.4 KCl, 1.8 CaCl2, and 1.0 MgCl2. The pH was adjusted to 7.4 with NaOH. […] The SAN was cut into smaller pieces, which were transferred and rinsed in a solution containing (mM) 140 NaCl, 5.0 HEPES, 5.5 Glucose, 5.4 KCl, 0.2 CaCl2, 0.5 MgCl2, 1.2 KH2PO4, 50 Taurine and 1 mg/ml bovine serum albumin (BSA), with pH adjusted to 7.4 using NaOH. SAN tissue pieces were digested in 5 ml of solution containing collagenase type I, elastase (Worthington), and protease type XIV (Sigma) for 20-30 min. The tissue was transferred to 10 ml of Kraft-Bruhe (KB) medium containing (mM) 100 potassium glutamate, 5.0 HEPES, 20 Glucose, 25 KCl, 10 potassium aspartate, 2.0 MgSO4, 10 KH2PO4, 20 taurine, 5 creatine, 0.5 EGTA, and 1 mg/ml BSA, with pH adjusted to 7.2 using KOH. The tissue was agitated using a glass pipette for 10 min. The cells were stored at 4° C. and studied within 7 hours.
# SAN cells were placed in Tyrode's solution at 36±0.5° C. SAN cells were identified by their characteristic morphology (spindle or spider shape) and spontaneous activity in all single cell experiments. SAN cells were also identified electrophysiologically by typical spontaneous action potentials with slow depolarizing phase 4 and the hyperpolarization-activated current (If) in electrophysiological experiments.
# Spontaneous action potentials (APs) and If were recorded using the perforated (amphotericin B or β-escin) patch-clamp technique^28 on single SAN cell at 36±0.5° C. in Tyrode's solution (0.5 mM BaCl2 was added to the bath solution when recording If^32). The pipette was filled with (mM) 130 potassium aspartate, 10 NaCl, 10 HEPES, 0.04 CaCl2, amphotericin B 240 μg/ml with pH adjusted to 7.2 with KOH. SAN cells with stable APs lasting at least 5 min were included in the experiments. β-escin 25 μM was substituted for amphotericin B to allow dialysis of Ru360 or ATP. When recording If, membrane potential was held at −35 mV, the voltage steps were applied for 5 s ranging from −125 mV to −45 mV in 10 mV increments or vice versa.^33 ICa was measured using the perforated patch technique at […] as previously described.^22 ICa was confirmed by its sensitivity to Nifedipine 5 μM. Depolarizing voltage pulses (300 ms in duration) to various potentials (−60 mV to 60 mV in 10 mV step) were applied after 50 ms at −40 mV to inactivate INa from a holding potential of −70 mV. […]
substance,measurement,setting,value
(μ)[(HCO2)(NH3)4Ru]2OCl3) [Ru360],IC50,[1],0.184 nM
same,Mitochondrial Ca2+ entry,[2],similarly effective at preventing
same,Basal SAN cell rates,"[3]; dialysis, no ISO",neither Ru360 nor ATP had any affect
same,SAN cell action potential frequency increases to ISO,"[3]; freshly isolated SAN cells dialyzed with Ru360 5 μM, vs cells without Ru360",significantly reduced
